Where two headings read alike, the source gives them in different places.
Experiments:
[1] = Cytotoxicity on human hepatocytes in induction assay; type: cell-based; conditions: 20 μM, CYP2C induction evaluation (data not shown)
Procedure: […] […] […] Enzyme activity for each CYP isoform was reported as a fold change over vehicle control and the percent of positive control (detailed calculation in Supplementary 1.1). Hepatocytes were harvested with a lysis buffer from RNeasy 96 Kit (Qiagen Inc., Germantown, MD, USA) to isolate RNA, which was analyzed by real-time quantitative polymerase chain reaction (RT-PCR). […] Emax (the maximal observed induction) and EC50 (the concentration that supports half-maximal induction) were estimated by non-linear regression of fold increase in CYP mRNA expression versus concentration plots.

[2] = Human PK projection by allometric scaling; conditions: allometric scaling with correction of MLP and fu
From the text: Translational prediction of human plasma total clearance (CL) and volume of distribution at steady state (Vss) was projected using the AS approach for different preclinical species (mice, rats, dogs, and monkeys). The mean value of unbound plasma fraction (fu) in animals was applied to transform pharmacokinetic parameters (Vss or CL) to the corresponding free drug clearance (CLu) and free drug volume of distribution (Vss,u). The CLu in preclinical species was scaled to CLu in humans according to the following equations with consideration of the maximum lifespan potential (MLP) as a correction factor according to the rule of exponents (RoEs) ([Mahmood and Balian, 1996]), and Vss,u in preclinical species was scaled to Vss,u in humans simply based on BW according to the following equations. Both CLu and Vss,u in humans were converted to CL and Vss using the mean value of fu in humans. CLu×MLP=a×BW^b, log (CLu×MLP)=log a+b log BW, Vss,u=a×BW^b, log (Vss,u)=log a+b log BW,
where BW represents the body weight of the standard species (0.02, 0.2, 10, 4, and 70 kg for mice, rats, dogs, cynomolgus monkeys, and humans, respectively), a represents allometric coefficients, and b is allometric exponents.

[3] = Single-dose PK in SD rats (IV/PO); parameters: species or system SD rat; conditions: in vivo
From the text: For the single-dose PK study, twenty-four rats were divided into four groups, with six rats (male: female = 1:1) in each group.

[4] = Single-dose PK in ICR mice (IV/PO)
Procedure: All intravenous and oral dose formulations were analyzed by liquid chromatography coupled with tandem mass spectrometry (LC-MS/MS) to confirm test article concentration and determine formulation stability.
Animals had free access to food, and water was allowed ad libitum. […] The blood samples were collected with sodium heparin as an anticoagulant. The plasma samples were obtained from blood samples by centrifugation and stored at −80°C until analysis.
A total of eighteen mice were divided into intravenous (IV) and oral (PO) administration groups, with nine animals in each group. The mice were fasted overnight with free access to water before dosing. […] After the mice were anesthetized with isoflurane, approximately 100 μL of whole blood was collected through the retro-orbital sinus and transferred to a 1.5 mL tube containing sodium heparin. The gathered blood samples were kept on ice until centrifugation. Plasma samples were harvested by centrifugation at 1,500 g for 10 min at 4°C.
Pharmacokinetic parameters were calculated by a non-compartmental method using Thermo Kinetica® (Version 5.1 SP1, Thermo Electron Corporation, Philadelphia, Pennsylvania, United States). The area under the plasma concentration–time curve from time zero to the time of the last measurable sample (AUC0-t) or the plasma concentration–time curve from time zero to infinity (AUC0-inf) was calculated using the linear trapezoidal method.

MATE2-K = MATE2-K (Homo sapiens, UniProt Q86VL8); assay: MATE2-K inhibition, tetraethylammonium uptake in transfected HEK293 cells; conditions: for Percentage transported / Uptake rate: MATE2-K
Procedure: The pre-incubation solutions were removed, and incubation solutions containing the inhibitors and probe substrates (or transport buffer containing an equal volume of vehicle control and probe substrates) were added and incubated at 37°C for 2 min (5 min for OATP1B3). The probe substrate for OAT1 was 4-aminohippuric acid (10 μM), for OAT3 was estrone 3-sulfate (10 μM), for OCT2 was metformin (100 μM), for OATP1B1 was β-estradiol 17-(β-D-glucuronide) (5 μM), for OATP1B3 was β-estradiol 17-(β-D-glucuronide) (10 μM), and for MATE1 and MATE2-K was tetraethylammonium (10 μM). After incubation, cells were washed three times with ice-cold transport buffer (25 mM HEPES, pH 7.4, pH 8.0 for overexpressing MATE1 and MATE2-K HEK293 cells) and lysed in distilled water. The concentrations of probe substrates were determined by LC-MS/MS, and a BCA Kit (Solarbio ®Life Sciences, Beijing, China) was used to determine the protein content in the cell lysate.
where C is the concentration of the drug in the cell lysate (nM), P is the protein concentration of the cell lysate (mg/mL), and T is the incubation time (minute). Uptake ratetest compound is the uptake rate of the substrate in the presence of the test compound. Uptake ratevehicle control is the uptake rate of the substrate in the presence of the vehicle control. Uptake ratepassive is the uptake rate of the substrate in the presence of the positive inhibitor at the top test concentration.

[5] = both sexes, SD, rat, iv, 5 mg/kg
[6] = both sexes, SD, rat, po, 1 mg/kg
[7] = both sexes, SD, rat, po, 5 mg/kg
[8] = both sexes, SD, rat, po, 25 mg/kg
[9] = male, ICR, mouse, in vivo, iv, 2.5 mg/kg
[10] = male, ICR, mouse, in vivo, po, 10 mg/kg

Chain of MATE2-K (Q86VL8 1-566 isoform Q86VL8-3): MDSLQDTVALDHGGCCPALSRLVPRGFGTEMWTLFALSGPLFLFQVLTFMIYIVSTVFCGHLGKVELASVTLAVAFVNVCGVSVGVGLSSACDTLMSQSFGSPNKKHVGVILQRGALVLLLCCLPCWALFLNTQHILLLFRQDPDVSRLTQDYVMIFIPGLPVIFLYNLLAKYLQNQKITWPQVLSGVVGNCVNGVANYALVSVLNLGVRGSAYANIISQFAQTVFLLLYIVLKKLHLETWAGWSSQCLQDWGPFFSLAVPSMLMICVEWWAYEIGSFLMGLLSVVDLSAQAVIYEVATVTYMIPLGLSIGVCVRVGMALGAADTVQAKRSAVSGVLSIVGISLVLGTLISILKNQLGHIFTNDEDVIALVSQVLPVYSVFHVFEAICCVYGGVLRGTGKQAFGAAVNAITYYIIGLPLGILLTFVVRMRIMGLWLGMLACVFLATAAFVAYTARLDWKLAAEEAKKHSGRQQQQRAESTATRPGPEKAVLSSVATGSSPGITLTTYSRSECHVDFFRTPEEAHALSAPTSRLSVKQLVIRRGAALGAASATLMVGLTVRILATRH

With `C[C@H](Nc1ncnc(N)c1C#N)c1cc2ncc(Cl)n2nc1-c1ccccc1` [Amdizalisib] the “cytotoxic effect on cell viability” value [1] was “exhibited cytotoxicity against human hepatocytes in one donor”, the “predicted human CL” value [2] was 2.57 mL/min/kg and the AUC(0-inf) [3, 5] was 13900 ng·h/mL. The AUC(0-t) [3, 5] was 13900 ng·h/mL, the MRT [3, 5] was 4.6 ± 2.85 h and the Vd [3, 5] was 1.68 ± 0.153 L/kg. For the same compound, the clearance [3, 5] was 9.12 ± 6.31 mL/min/kg, the AUC(0-inf) [3, 6] was 1320 ng·h/mL and the AUC(0-t) [3, 6] was 1140 ng·h/mL. The Cmax [3, 6] was 115 ± 79.1 ng/mL, the MRT [3, 6] was 7.9 ± 5.28 h and the AUC(0-inf) [3, 7] was 6130 ng·h/mL. The AUC(0-t) [3, 7] was 6040 ng·h/mL, the Cmax [3, 7] was 622 ± 257 ng/mL and the MRT [3, 7] was 7.84 ± 5.51 h. The Tmax [3, 7] was 1.5 ± 0.548 h, the half-life [3, 7] was 5.11 ± 4 h and the AUC(0-inf) [3, 8] was 52600 ng·h/mL. It also gave an AUC(0-t) [3, 8] of 52400 ng·h/mL, a Cmax [3, 8] of 3350 ng/mL and an MRT [3, 8] of 11 ± 6.61 h. It also gave a half-life [3, 8] of 5.62 ± 2.86 h, a half-life ([3]; both sexes, SD rat, fasted, IV 5 mg/kg, read-out: t1/2 (converted)) of 3.61 ± 2.01 h and a Tmax ([3]; both sexes, SD rat, fasted, PO 1 mg/kg, read-out: Tmax) of 2.67 ± 1.75 h. The half-life ([3]; both sexes, SD rat, fasted, PO 1 mg/kg, read-out: t1/2 (converted)) was 4.94 ± 3.35 h, the Tmax ([3]; both sexes, SD rat, fasted, PO 25 mg/kg, read-out: Tmax) was 4.17 ± 2.23 h and the “CL as % of the hepatic blood flow” value ([3]; both, Sprague-Dawley, rat, iv) was 16.6%. For the same compound, the FPO ([4]; ICR mouse, fasted, PO 10 mg/kg) was 101%, the AUC(0-inf) [4, 9] was 2830 ng·h/mL and the AUC(0-t) [4, 9] was 2700 ng·h/mL. For the same compound, the MRT [4, 9] was 2.12 h, the Vd [4, 9] was 1.87 L/kg and the clearance [4, 9] was 14.7 mL/min/kg. For the same compound, the half-life [4, 9] was 2.06 h, the AUC(0-inf) [4, 10] was 13700 ng·h/mL and the AUC(0-t) [4, 10] was 10900 ng·h/mL. The Cmax [4, 10] was 3080 ng/mL, the MRT [4, 10] was 4.91 h and the half-life [4, 10] was 4.16 h. For the same compound, the IC50 (MATE2-K) was 38.2 µM, the “calculated R value (MATE2-K)” value (MATE2-K) was under 1.1 and the Percentage transported (MATE2-K; compound 0.3 μM) was 87.1%. It also gave an Uptake rate (MATE2-K; compound 0.3 μM) of 125±3.49 pmol/mg protein/min, a Percentage transported (MATE2-K; compound 1 μM) of 89.9% and an Uptake rate (MATE2-K; compound 1 μM) of 129±7.96 pmol/mg protein/min. It also gave a Percentage transported (MATE2-K; compound 3 μM) of 89.0%, an Uptake rate (MATE2-K; compound 3 μM) of 127±5.50 pmol/mg protein/min and a Percentage transported (MATE2-K; compound 10 μM) of 89.6%. For the same compound, the Uptake rate (MATE2-K; compound 10 μM) was 128±4.89 pmol/mg protein/min, the Percentage transported (MATE2-K; compound 30 μM) was 49.3% and the Uptake rate (MATE2-K; compound 30 μM) was 73.9±6.49 pmol/mg protein/min. It also gave a Percentage transported (MATE2-K; compound 100 μM) of 29.6%, an Uptake rate (MATE2-K; compound 100 μM) of 47.4±3.61 pmol/mg protein/min and an inhibition at 2 min, 0.3 µM (MATE2-K; human, pH 8) of 12.9%. The inhibition at 2 min, 1 µM (MATE2-K; human, pH 8) was 10.1%, the inhibition at 2 min, 3 µM (MATE2-K; human, pH 8) was 11% and the inhibition at 2 min, 10 µM (MATE2-K; human, pH 8) was 10.4%. The inhibition at 2 min, 30 µM (MATE2-K; human, pH 8) was 50.7% and the inhibition at 2 min, 100 µM (MATE2-K; human, pH 8) was 70.4%.
